This note sets out measurements from patent publication US20150352108A1, “AMINO-PYRIMIDINE COMPOUNDS AS INHIBITORS OF TBK1 AND/OR IKK EPSILON” (Alzheimer's Institute of America, priority 2009, published 2015).

For one experiment, the target named is T1, IKKε (Homo sapiens, UniProt Q14164).
T1 construct: His-tag; made in house; host or cells: Sf9 insect cells
T1 sequence (Q14164 1-716): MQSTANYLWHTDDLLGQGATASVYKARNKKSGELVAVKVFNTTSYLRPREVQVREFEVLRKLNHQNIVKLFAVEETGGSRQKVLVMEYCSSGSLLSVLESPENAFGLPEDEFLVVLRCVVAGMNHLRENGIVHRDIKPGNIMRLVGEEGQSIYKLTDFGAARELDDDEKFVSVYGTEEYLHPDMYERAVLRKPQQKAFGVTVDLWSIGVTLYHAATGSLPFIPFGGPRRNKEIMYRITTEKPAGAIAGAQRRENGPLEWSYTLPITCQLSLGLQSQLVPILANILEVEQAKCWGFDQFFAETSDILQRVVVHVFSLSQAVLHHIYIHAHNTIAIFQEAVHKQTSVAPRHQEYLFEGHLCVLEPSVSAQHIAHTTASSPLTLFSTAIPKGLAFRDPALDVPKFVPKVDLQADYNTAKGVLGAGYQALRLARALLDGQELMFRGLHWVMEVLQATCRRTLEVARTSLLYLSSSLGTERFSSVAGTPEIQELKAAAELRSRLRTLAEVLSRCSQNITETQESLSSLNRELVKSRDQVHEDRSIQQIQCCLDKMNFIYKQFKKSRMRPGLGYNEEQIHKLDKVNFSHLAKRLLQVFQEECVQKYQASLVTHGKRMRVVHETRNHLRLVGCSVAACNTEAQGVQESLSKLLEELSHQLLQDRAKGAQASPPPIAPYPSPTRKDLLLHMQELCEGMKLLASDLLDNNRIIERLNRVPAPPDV
In words: In-vitro IKKε kinase assay ([γ33]ATP filter-plate). Type of experiment: biochemical. The following applies: text bins; read-out: IC50 for inhibition of the kinase activity of IKKε. The essentials: (§1)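 His-tagged Sf9-expressed kinases at 0.1 or 0.02 μg/ml (TBK1) and 0.1 or 0.015 μg/ml (IKKε) for normal and sensitized formats, with myelin basic protein or casein substrate. ATP was at 2×Km (60 μM TBK1, 32 μM IKKε) plus 0.3 μCi [γ33]ATP. Reactions ran 30-45 min, were captured on P-81 filters, and counts were normalized to DMSO.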

For another experiment, the target named is T2, TBK1 (Homo sapiens, UniProt Q9UHD2).
T2 construct: His-tag; made in house; host or cells: Sf9 insect cells
T2 sequence (Q9UHD2 1-729): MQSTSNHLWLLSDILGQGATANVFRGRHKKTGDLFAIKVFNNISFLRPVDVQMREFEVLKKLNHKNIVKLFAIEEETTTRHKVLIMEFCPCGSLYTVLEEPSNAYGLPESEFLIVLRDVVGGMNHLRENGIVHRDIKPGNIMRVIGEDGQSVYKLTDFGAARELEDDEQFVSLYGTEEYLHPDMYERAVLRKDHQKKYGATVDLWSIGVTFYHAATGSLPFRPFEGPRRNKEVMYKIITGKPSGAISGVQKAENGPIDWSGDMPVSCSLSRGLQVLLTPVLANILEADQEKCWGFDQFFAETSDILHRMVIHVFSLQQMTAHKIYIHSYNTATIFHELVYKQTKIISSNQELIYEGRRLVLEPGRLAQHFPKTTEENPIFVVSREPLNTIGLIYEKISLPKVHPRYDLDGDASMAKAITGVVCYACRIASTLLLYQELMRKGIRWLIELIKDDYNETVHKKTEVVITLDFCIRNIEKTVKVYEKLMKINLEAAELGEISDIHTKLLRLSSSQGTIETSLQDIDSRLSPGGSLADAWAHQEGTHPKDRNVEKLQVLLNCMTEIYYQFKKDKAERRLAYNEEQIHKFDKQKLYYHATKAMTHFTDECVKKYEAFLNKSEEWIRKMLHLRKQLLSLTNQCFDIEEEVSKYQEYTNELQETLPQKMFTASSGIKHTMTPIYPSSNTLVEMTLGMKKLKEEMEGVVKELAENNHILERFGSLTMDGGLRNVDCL
In words: In-vitro TBK1 kinase assay ([γ33]ATP filter-plate). The conditions noted are these: text bins; read-out: IC50 for inhibition of the kinase activity of TBK1. Type of experiment: biochemical. The essentials: as §1

With `COc1cc(C#N)cc(-c2ccnc(Nc3ccc(N4CCOCC4)cc3)n2)c1` [Example 241, 3-Methoxy-5-(2-{[4-(morpholin-4-yl)phenyl]amino}pyrimidin-4-yl)benzonitrile], the results for the IC50 at IKKε and at TBK1 were 5 to 50 nM and 10 to 100 nM, respectively.
On to `N#Cc1cc(-c2ccnc(Nc3ccc(N4CCOCC4)cc3)n2)ccc1NN1CCOCC1` [Example 285, 2-(morpholin-4-ylamino)-5-(2-{[4-(morpholin-4-yl)phenyl]amino}pyrimidin-4-yl)benzonitrile], for which the figures for the IC50 at IKKε and at TBK1 were 5 to 50 nM and under 10 nM, respectively.
The like results for `COCCNC(=O)c1ccc(Nc2nccc(-c3ccc(OCC4CC4)c(C#N)c3)n2)cc1` [compound 666] were, in that order, under 5 nM and under 10 nM.
The corresponding values for `COc1ccc(-c2ccnc(Nc3cccc(Cl)c3)n2)cc1C#N` [Example 260, 5-{2-[(3-Chlorophenyl)amino]pyrimidin-4-yl}-2-methoxybenzonitrile] are 50 to 500 nM and 10 to 100 nM.
The corresponding values for `COc1ccc(Nc2nccc(-c3cc(Cl)cc(C#N)c3)n2)cc1OC` [Example 248, 3-Chloro-5-{2-[(3,4-dimethoxyphenyl)amino]pyrimidin-4-yl}benzonitrile] are 5 to 50 nM and 10 to 100 nM.
`N#Cc1cc(-c2ccnc(Nc3ccc(N4CCOCC4)cc3)n2)ccc1NC(=O)C1CCCCC1` [Example 54, N-[2-cyano-4-(2-{[4-(morpholin-4-yl)phenyl]amino}pyrimidin-4-yl)phenyl] cyclohexane-carboxamide]: the IC50 (commonly the concentration that inhibits the measured activity by half) at IKKε fell in the range of 5 to 50 nM; at TBK1, 10 to 100 nM.
With `COc1ccc(-c2ccnc(Nc3cc(CN(C)CC(=O)N(C)C)c(OC)c(OC)c3)n2)cc1C#N` [Example 115, N~2~-(5-{[4-(3-Cyano-4-methoxyphenyl)pyrimidin-2-yl]amino}-2,3-dimethoxybenzyl)-N,N,N~2~- trimethylglycinamide], the IC50 was under 5 nM at IKKε and 10 to 100 nM on TBK1.
The like results for `COc1cc(Nc2nccc(-c3ccc(OC4CCOCC4)c(C#N)c3)n2)ccc1OCCCS(=O)(=O)N1CCOCC1` [Example 28, 5-[2-({3-methoxy-4-[3-(morpholin-4-ylsulfonyl)propoxy]phenyl}amino)pyrimidin-4-yl]-2-(tetrahydro-2H-pyran-4-yloxy)benzonitrile] were, in that order, under 5 nM and under 10 nM.
The corresponding values for `COc1cc(NC(=O)N2CC[C@@H](O)C2)cc(Nc2nccc(-c3ccc(OC)c(C#N)c3)n2)c1` [compound 378, (3R)-N-(3-{[4-(3-Cyano-4-methoxyphenyl)pyrimidin-2-yl]amino}-5-methoxyphenyl)-3-hydroxypyrrolidine-1-carboxamide] are 5 to 50 nM and 10 to 100 nM.
The corresponding values for `N#Cc1cc(-c2ccnc(Nc3ccc(N4CCOCC4)cc3)n2)ccc1OC1CCN(C=O)C1` (stereo not drawn) [Example 187, 2-[(1-formylpyrrolidin-3-yl)oxy]-5-(2-{[4-(morpholin-4-yl)phenyl]amino}pyrimidin-4-yl)benzonitrile] are 5 to 50 nM and under 10 nM.
As for `N#Cc1cc(-c2ccnc(Nc3ccc(N4CCOCC4)c(F)c3)n2)ccc1OC1CCOCC1` [Example 24, 5-(2-{[3-fluoro-4-(morpholin-4-yl)phenyl]amino}pyrimidin-4-yl)-2-(tetrahydro-2H-pyran-4-yloxy)benzonitrile], the IC50 is under 5 nM on IKKε and under 10 nM at TBK1.
The corresponding values for `N#Cc1cc(-c2ccnc(Nc3ccc(N4CCOCC4)cc3)n2)ccc1NCc1ccccc1` [Example 224] are 5 to 50 nM and 10 to 100 nM.
The corresponding values for `CC(C)C(=O)Nc1ccc(-c2ccnc(Nc3ccc(N4CCN(CCO)CC4)cc3)n2)cc1C#N` [compound 427, N-{2-cyano-4-[2-({4-[4-(2-hydroxyethyl)piperazin-1-yl]phenyl}amino)pyrimidin-4-yl]phenyl}-2-methylpropanamide] are 5 to 50 nM and under 10 nM.
The like results for `COc1cc(Nc2nccc(-c3ccc(OC4CCN(S(C)(=O)=O)CC4)c(C#N)c3)n2)ccc1N1CCOCC1` [Example 79, 5-(2-{[3-methoxy-4-(morpholin-4-yl)phenyl]amino}pyrimidin-4-yl)-2-{[1-(methylsulfonyl)piperidin-4-yl]oxy}benzonitrile] were, in that order, 5 to 50 nM and 10 to 100 nM.
With `COc1cc(NC(=O)NC2CCN(C(C)=O)CC2)cc(Nc2nccc(-c3ccc(OC)c(C#N)c3)n2)c1` [compound 344, 1-(1-Acetylpiperidin-4-yl)-3-(3-{[4-(3-cyano-4-methoxyphenyl)pyrimidin-2-yl]amino}-5-methoxyphenyl)urea], the concentration for half-maximal inhibition (IC50) on IKKε lay in the range of 5 to 50 nM; at TBK1 it was 10 to 100 nM.
The corresponding values for `COc1ccc(-c2ccnc(Nc3ccc(NC(C)=O)cc3)n2)cc1C#N` [compound 361, N-(4-{[4-(3-Cyano-4-methoxyphenyl)pyrimidin-2-yl]amino}phenyl) acetamide] are 5 to 50 nM and 10 to 100 nM.
As for `COc1ccc(-c2ccnc(Nc3ccc(N(C)CC(=O)N(C)C)c(OC)c3)n2)cc1C#N` [Example 68, N~2~-(4-{[4-(3-Cyano-4-methoxyphenyl)pyrimidin-2-yl]amino}-2-methoxyphenyl)-N,N,N~2~- trimethylglycinamide], the IC50 on IKKε is under 5 nM; at TBK1 it was under 10 nM.
For the molecule `CCOc1cccc(Nc2nccc(-c3cccc(C#N)c3)n2)c1` [Example 276, 3-{2-[(3-Ethoxyphenyl)amino]pyrimidin-4-yl}benzonitrile], the IC50 on IKKε fell in the range of 50 to 500 nM; on TBK1, 100 to 500 nM.
The corresponding values for `CC(C)C(=O)Nc1ccc(-c2ccnc(Nc3cccc(CCN4CCOCC4)c3)n2)cc1C#N` [compound 466, N-{2-cyano-4-[2-({3-[2-(morpholin-4-yl)ethyl]phenyl}amino)pyrimidin-4-yl]phenyl}-2-methylpropanamide] are 5 to 50 nM and under 10 nM.
The like results for `CNS(=O)(=O)Cc1ccc(Nc2nccc(-c3ccc(OCC(C)C)c(C#N)c3)n2)cc1` [compound 606, 1-[4-({4-[3-Cyano-4-(2-methylpropoxy)phenyl]pyrimidin-2-yl}amino)phenyl]-N-methylmethane-sulfonamide] were, in that order, under 5 nM and under 10 nM.
The like results for `COc1cc(Nc2nccc(-c3ccc(OC(C)C)c(C#N)c3)n2)cc(OC)c1OC` [Example 33, 2-(Propan-2-yloxy)-5-{2-[(3,4,5-trimethoxyphenyl)amino]pyrimidin-4-yl}benzonitrile] were, in that order, under 5 nM and under 10 nM.
Turning to `COc1cc(Nc2nccc(-c3ccc(NC(=O)C(C)C)c(C#N)c3)n2)ccc1N1CCNC(=O)C1` [Example 88, N-[2-Cyano-4-(2-{[3-methoxy-4-(3-oxopiperazin-1-yl)phenyl]amino}pyrimidin-4-yl)phenyl]-2-methylpropanamide], the IC50 on IKKε was under 5 nM; at TBK1, under 10 nM.
The corresponding values for `COc1cc(NC(=O)NC[C@@H](C)O)cc(Nc2nccc(-c3ccc(OC)c(C#N)c3)n2)c1` [compound 343, 1-(3-{[4-(3-Cyano-4-methoxyphenyl)pyrimidin-2-yl]amino}-5-methoxyphenyl)-3-[(2R)-2-hydroxypropyl]urea] are 5 to 50 nM and under 10 nM.
The corresponding values for `N#Cc1cc(-c2ccnc(Nc3ccc(N4CCOCC4)cc3)n2)ccc1OCCCNC(=O)CO` [Example 181, N-{3-[2-cyano-4-(2-{[4-(morpholin-4-yl)phenyl]amino}pyrimidin-4-yl)phenoxy]propyl}-2-hydroxyacetamide] are under 5 nM and under 10 nM.
